Data: US11945822B2, “Pyrazolo-triazine and/or pyrazolo-pxrimidine derivatives as selective inhibitor of cyclin dependent kinase” (QURIENT CO., LTD., priority 2018, dated 2024)

What was measured:
[1] = target: T1, CDK7/Cyclin H/MNAT1 (Homo sapiens, UniProt P50613); assay: Enzymatic assay for CDK7 (FRET based LANCE Ultra kinase assay); type: biochemical; details: for IC50: read-out: CDK7 enzymatic activity (IC50 range)
T1 construct: purchased Invitrogen PR6749B
Outline: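 LANCE Ultra TR-FRET kinase assay using a ULight-labeled peptide substrate and a Eu-labeled anti-phospho antibody, with ATP at its Km. Purified CDK/cyclin complex was added to compound after brief centrifugation.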

[2] = tested on: H460; assay: Cellular H460 viability assay (CellTiter-Glo, 72 hours); type: cell-based; details: Homo sapiens, NCI-H460
Outline: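 Steps: seed cells at per-line density; add compound, DMSO vehicle kept under 0.1% final; incubate 72 h, 37 °C, 5% CO2; lyse with CellTiter-Glo and read luminescence; run in duplicate.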

[3] = tested on: MOLT-4; assay: Cellular MOLT-4 viability assay (CellTiter-Glo, 72 hours); type: cell-based; details: Homo sapiens, MOLT4 viability assay
Procedure: All cell lines were routinely tested for mycoplasma.
The effect of the CDK7 inhibitor to inhibit the growth of target cancer cells was evaluated through the 72 hours time period of viability assay. Briefly, the candidate cell line ware plated in 96 well plate at the following density of cells respectively. […] DMSO solvent without compound served as a control and final DMSO concentration less than 0.1%. After 72 hours of incubation at 37° C., 5% CO2 incubator, cells were analyzed for the viability using the CellTiter-Glo Luminescent Cell Viability Assay (Promega, Cat #G7570). All viability assays were performed in duplicate and Luminescence was read using an Envision (Perkin Elmer, USA). Data was analyzed using XLfit software.

[4] = target: T2, CDK2/Cyclin A (Homo sapiens, UniProt P24941); assay: Enzymatic assay for CDK2 (FRET based LANCE Ultra kinase assay); type: biochemical; details: read-out: CDK2 enzymatic activity (IC50 range)
T2 construct: purchased Invitrogen PV6290
Outline: (§1)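 Each CDK complex ([…]) phosphorylated 68 nM ULight-MBP peptide with ATP at Km for 60 min at 23° C., against 8 compound doses (4-fold dilutions). EDTA/Eu-anti-phospho-MBP detection, 60 min, then TR-FRET emission at 615 and 665 nm.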

[5] = target: T3, CDK1/Cyclin B (Homo sapiens, UniProt P06493); assay: Enzymatic assay for CDK1 (FRET based LANCE Ultra kinase assay); type: biochemical; details: read-out: CDK1 enzymatic activity (IC50 range)
T3 construct: purchased Invitrogen PR4768C
Outline: as §1

[6] = target: T4, CDK5/p25 (Homo sapiens, UniProt Q00535); assay: Enzymatic assay for CDK5 (FRET based LANCE Ultra kinase assay); type: biochemical; details: read-out: CDK5 enzymatic activity (IC50 range)
T4 construct: purchased Invitrogen PR8543B
Outline: as §1

T1 sequence (P50613 whole entry): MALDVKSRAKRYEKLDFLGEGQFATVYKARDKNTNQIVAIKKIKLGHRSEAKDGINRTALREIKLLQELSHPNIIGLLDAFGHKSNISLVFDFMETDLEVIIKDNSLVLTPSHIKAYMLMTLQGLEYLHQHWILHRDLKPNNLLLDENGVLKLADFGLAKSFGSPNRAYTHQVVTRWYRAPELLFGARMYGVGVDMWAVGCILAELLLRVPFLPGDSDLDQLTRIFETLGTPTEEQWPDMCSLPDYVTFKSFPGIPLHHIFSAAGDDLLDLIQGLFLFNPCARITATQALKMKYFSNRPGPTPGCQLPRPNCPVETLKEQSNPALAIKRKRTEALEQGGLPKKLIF
T1 sequence (P51946 whole entry partner): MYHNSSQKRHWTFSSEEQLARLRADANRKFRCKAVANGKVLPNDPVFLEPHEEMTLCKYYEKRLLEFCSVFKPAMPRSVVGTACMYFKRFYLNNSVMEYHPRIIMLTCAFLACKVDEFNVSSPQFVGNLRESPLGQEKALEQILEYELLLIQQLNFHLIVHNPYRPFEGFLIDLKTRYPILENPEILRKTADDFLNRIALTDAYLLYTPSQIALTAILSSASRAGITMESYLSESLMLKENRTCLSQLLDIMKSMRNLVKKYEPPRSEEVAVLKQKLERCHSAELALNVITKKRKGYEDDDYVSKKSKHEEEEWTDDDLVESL
T1 sequence (P51948 whole entry partner): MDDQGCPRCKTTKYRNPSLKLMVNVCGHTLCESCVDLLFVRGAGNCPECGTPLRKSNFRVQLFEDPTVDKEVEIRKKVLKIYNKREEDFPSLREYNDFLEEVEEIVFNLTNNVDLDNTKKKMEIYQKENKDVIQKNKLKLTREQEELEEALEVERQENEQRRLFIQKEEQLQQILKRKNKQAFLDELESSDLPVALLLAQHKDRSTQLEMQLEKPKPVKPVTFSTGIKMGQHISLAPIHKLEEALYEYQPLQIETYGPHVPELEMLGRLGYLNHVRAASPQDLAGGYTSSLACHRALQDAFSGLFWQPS
T4 sequence (Q00535 whole entry): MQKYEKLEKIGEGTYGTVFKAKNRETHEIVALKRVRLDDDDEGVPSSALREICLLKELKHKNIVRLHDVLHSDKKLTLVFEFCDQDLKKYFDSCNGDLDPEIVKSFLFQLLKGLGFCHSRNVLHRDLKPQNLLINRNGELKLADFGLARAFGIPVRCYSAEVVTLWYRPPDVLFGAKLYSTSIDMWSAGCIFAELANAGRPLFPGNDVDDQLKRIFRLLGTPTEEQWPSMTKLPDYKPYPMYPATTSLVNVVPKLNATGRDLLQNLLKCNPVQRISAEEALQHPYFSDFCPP
T4 sequence (Q15078 99-307 partner limits assumed): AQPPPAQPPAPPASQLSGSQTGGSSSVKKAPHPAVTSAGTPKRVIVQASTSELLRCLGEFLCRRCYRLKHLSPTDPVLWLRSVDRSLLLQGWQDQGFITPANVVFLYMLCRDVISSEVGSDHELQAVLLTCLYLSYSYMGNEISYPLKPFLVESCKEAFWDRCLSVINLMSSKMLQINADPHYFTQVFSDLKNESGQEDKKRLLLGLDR
T3 sequence (P06493 whole entry): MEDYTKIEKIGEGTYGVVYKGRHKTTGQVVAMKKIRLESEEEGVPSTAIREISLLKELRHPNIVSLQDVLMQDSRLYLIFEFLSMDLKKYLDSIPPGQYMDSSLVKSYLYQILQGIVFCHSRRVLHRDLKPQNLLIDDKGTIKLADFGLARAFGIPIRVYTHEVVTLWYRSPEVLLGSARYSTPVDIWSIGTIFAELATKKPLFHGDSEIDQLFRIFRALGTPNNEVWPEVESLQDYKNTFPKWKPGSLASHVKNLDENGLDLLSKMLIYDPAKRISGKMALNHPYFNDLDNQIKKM
T3 sequence (P14635 whole entry partner): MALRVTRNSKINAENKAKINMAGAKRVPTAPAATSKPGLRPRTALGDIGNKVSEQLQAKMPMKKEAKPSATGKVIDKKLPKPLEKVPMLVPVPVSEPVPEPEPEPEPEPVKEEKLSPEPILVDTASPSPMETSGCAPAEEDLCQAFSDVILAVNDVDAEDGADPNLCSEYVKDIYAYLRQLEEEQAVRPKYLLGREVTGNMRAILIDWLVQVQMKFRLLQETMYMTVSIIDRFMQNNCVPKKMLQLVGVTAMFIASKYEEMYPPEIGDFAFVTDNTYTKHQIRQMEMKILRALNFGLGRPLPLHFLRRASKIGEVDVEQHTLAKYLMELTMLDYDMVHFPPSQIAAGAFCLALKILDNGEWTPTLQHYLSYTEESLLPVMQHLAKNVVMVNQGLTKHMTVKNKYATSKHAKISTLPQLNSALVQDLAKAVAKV

Structure (SMILES) | CDK1/CDK7: Selectivity of CDK7 inhibition over CDK1 inhibition [1] | CDK2/CDK7: Selectivity of CDK7 inhibition over CDK2 inhibition [1] | CDK5/CDK7: Selectivity of CDK7 inhibition over CDK5 inhibition [1] | IC50 [1] | IC50 [2] | IC50 [3] | IC50 [4] | IC50 [5] | IC50 [6]
CC(C)c1cnn2c(NCc3ccccc3-n3cccn3)nc(N3CCN(C)CC3)nc12 [Compound 3] | A (A=greater than 200 fold) | B (B=less than 200 fold, but greater than 20 fold) | B (B=less than 200 fold, but greater than 20 fold) | < 0.1 µM | 1 to 10 µM | > 10 µM | > 1 µM | > 1 µM | 0.1 to 1 µM
CC(C)c1cnn2c(NCc3ncccc3-n3cccn3)nc(N3CCC(N)CC3)nc12 [Compound 5] |  |  |  |  | 1 to 10 µM | > 10 µM |  |  | 
CC(C)c1cnn2c(NCc3ccncc3-n3cccn3)nc(N3CCC(N)CC3)nc12 [Compound 6] |  |  |  |  | < 1 µM | > 10 µM |  |  | 
CC(C)c1cnn2c(NCc3cccc4cccnc34)nc(N3CCC(N)CC3)nc12 [Compound 9] | B (B=less than 200 fold, but greater than 20 fold) | B (B=less than 200 fold, but greater than 20 fold) | C (C=less than 20 fold) | < 0.1 µM | < 1 µM | 1 to 10 µM | 0.1 to 1 µM | 0.1 to 1 µM | < 0.1 µM
NC1CCN(c2nc(NCc3ccccc3-n3cccn3)n3ncc(I)c3n2)CC1 [Compound 36] | B (B=less than 200 fold, but greater than 20 fold) | C (C=less than 20 fold) | C (C=less than 20 fold) | < 0.1 µM |  | 1 to 10 µM | 0.1 to 1 µM | 0.1 to 1 µM | < 0.1 µM
NC1CCN(c2nc(NCc3ccccc3-n3cccn3)n3ncc(C(F)(F)F)c3n2)CC1 [Compound 41] |  |  |  |  | < 1 µM | > 10 µM |  |  | 
CC(C)c1cnn2c(NCc3ccccc3-c3ccco3)nc(N3CCC(N)CC3)nc12 [Compound 45] |  |  |  |  | < 1 µM | 1 to 10 µM |  |  | 
CCCc1ccccc1CNc1nc(N2CCC(N)CC2)nc2c(C(C)C)cnn12 [Compound 55] | B (B=less than 200 fold, but greater than 20 fold) | B (B=less than 200 fold, but greater than 20 fold) | C (C=less than 20 fold) | < 0.1 µM | 1 to 10 µM | 1 to 10 µM | 0.1 to 1 µM | 0.1 to 1 µM | 0.1 to 1 µM
CC(C)c1cnn2c(NCc3ccccc3OCc3ccccc3)nc(N3CCC(N)CC3)nc12 [Compound 57] | A (A=greater than 200 fold) | A (A=greater than 200 fold) | B (B=less than 200 fold, but greater than 20 fold) | < 0.1 µM | 1 to 10 µM | 1 to 10 µM | > 1 µM | > 1 µM | 0.1 to 1 µM
CN(C)c1cnn2c(NCc3ccccc3-n3cccn3)nc(N3CCC(N)CC3)nc12 [Compound 60] |  |  |  |  | < 1 µM | > 10 µM |  |  | 
CC(C)c1cnn2c(NCc3ccsc3-n3cccn3)nc(N3CCC(N)CC3)nc12 [Compound 62] | B (B=less than 200 fold, but greater than 20 fold) | B (B=less than 200 fold, but greater than 20 fold) | C (C=less than 20 fold) | < 0.1 µM | < 1 µM | 1 to 10 µM | 0.1 to 1 µM | 0.1 to 1 µM | < 0.1 µM
CC(C)c1cnn2c(NCc3ccccc3-n3ccc4ccccc43)nc(N3CCC(N)CC3)nc12 [Compound 68] |  |  |  |  | < 1 µM | 1 to 10 µM |  |  | 
CC(C)c1cnn2c(NCc3cccc(NC(=O)c4cccc(NC(=O)CCCN(C)C)c4)c3)nc(N3CCC(N)CC3)nc12 [Compound 70] | A (A=greater than 200 fold) | B (B=less than 200 fold, but greater than 20 fold) | B (B=less than 200 fold, but greater than 20 fold) | < 0.1 µM | 1 to 10 µM | > 10 µM | 0.1 to 1 µM | > 1 µM | 0.1 to 1 µM
CC(C)c1cnn2c(NCc3ccccc3Oc3ccc4ccccc4n3)nc(N3CCC(N)CC3)nc12 [Compound 74] | B (B=less than 200 fold, but greater than 20 fold) | B (B=less than 200 fold, but greater than 20 fold) | B (B=less than 200 fold, but greater than 20 fold) | < 0.1 µM | 1 to 10 µM | > 10 µM | > 1 µM | > 1 µM | 0.1 to 1 µM
CC(C)c1cnn2c(NCc3ccccc3-c3ccc4ccccc4[n+]3[O-])nc(N3CCC(N)CC3)nc12 [Compound 81] | A (A=greater than 200 fold) | A (A=greater than 200 fold) | A (A=greater than 200 fold) | < 0.1 µM |  | > 10 µM | > 1 µM | > 1 µM | > 1 µM
CC(C)c1cnn2c(NCc3cccc(N4CCN(C)CC4)c3)nc(N3CCC(N)CC3)nc12 [Compound 83] | A (A=greater than 200 fold) | A (A=greater than 200 fold) | B (B=less than 200 fold, but greater than 20 fold) | < 0.1 µM |  | 1 to 10 µM | 0.1 to 1 µM | > 1 µM | 0.1 to 1 µM
CCC(=O)Nc1cccc(Oc2cccc(CNc3nc(N4CCC(N)CC4)nc4c(C(C)C)cnn34)c2)c1 [Compound 86] | B (B=less than 200 fold, but greater than 20 fold) | B (B=less than 200 fold, but greater than 20 fold) | C (C=less than 20 fold) | < 0.1 µM |  | 1 to 10 µM | 0.1 to 1 µM | 0.1 to 1 µM | < 0.1 µM
CC(C)c1cnn2c(NCc3ccccc3Oc3ccc(NC(=O)CCCN(C)C)cc3)nc(N3CCC(N)CC3)nc12 [Compound 91] | A (A=greater than 200 fold) | B (B=less than 200 fold, but greater than 20 fold) | B (B=less than 200 fold, but greater than 20 fold) | < 0.1 µM |  | 1 to 10 µM | 0.1 to 1 µM | 0.1 to 1 µM | 0.1 to 1 µM
CC(C)c1cnn2c(NCc3cccc(Oc4ccc(F)c(NC(=O)CCCN(C)C)c4)c3)nc(N3CCC(N)CC3)nc12 [Compound 93] | A (A=greater than 200 fold) | B (B=less than 200 fold, but greater than 20 fold) | B (B=less than 200 fold, but greater than 20 fold) | < 0.1 µM |  | 1 to 10 µM | 0.1 to 1 µM | > 1 µM | 0.1 to 1 µM
CC(C)c1cnn2c(NCc3cccc(Oc4ccc(Cl)c(NC(=O)CCCN(C)C)c4)c3)nc(N3CCC(N)CC3)nc12 [Compound 94] | A (A=greater than 200 fold) | B (B=less than 200 fold, but greater than 20 fold) | B (B=less than 200 fold, but greater than 20 fold) | < 0.1 µM |  | 1 to 10 µM | 0.1 to 1 µM | 0.1 to 1 µM | 0.1 to 1 µM
CC(C)c1cnn2c(NCc3ccccc3-n3cccn3)nc(Nc3ccc(C4CCNCC4)cn3)nc12 [Compound 169] | A (A=greater than 200 fold) | B (B=less than 200 fold, but greater than 20 fold) | B (B=less than 200 fold, but greater than 20 fold) | < 0.1 µM |  | 1 to 10 µM | > 1 µM | > 1 µM | > 1 µM
